Columns and labels:
Assay type in all cases: in vivo
[1] = system: barnyardgrass (Echinochloa crus-galli); assay: Test A preemergence; conditions: Echinochloa crus-galli, pre-emergence, 240 h, 0 to 100 scale where 0 is no effect and 100 is complete control, read-out: Barnyardgrass plant response rating
Procedure, shortened: (§1)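 Ratings of 0 (no effect) to 100 (complete control) come from visual comparison with untreated controls roughly 10 d after treatment. Test chemicals, formulated in a non-phytotoxic solvent mixture with surfactant, were applied either as a preemergence directed soil spray on seeded soil or postemergence to one- to two-leaf plants 2 to 10 cm tall.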

[2] = system: giant foxtail (Setaria faberii); assay: Test A preemergence; conditions: Setaria faberi, pre-emergence, 240 h, 0 to 100 scale where 0 is no effect and 100 is complete control, read-out: Foxtail, Giant plant response rating
Procedure, shortened: as §1

[3] = system: pigweed (Amaranthus retroflexus); assay: Test A preemergence; conditions: Amaranthus retroflexus, pre-emergence, 240 h, 0 to 100 scale where 0 is no effect and 100 is complete control, read-out: Pigweed plant response rating
[4] = system: ragweed (common ragweed, Ambrosia elatior); assay: Test A preemergence; conditions: Ambrosia artemisiifolia, pre-emergence, 240 h, 0 to 100 scale where 0 is no effect and 100 is complete control, read-out: Ragweed plant response rating
Procedure, shortened: as §1

[5] = system: ryegrass, Italian (Italian ryegrass, Lolium multiflorum); assay: Test A preemergence; conditions: Lolium multiflorum, pre-emergence, 240 h, 0 to 100 scale where 0 is no effect and 100 is complete control, read-out: Ryegrass, Italian plant response rating
Procedure, shortened: as §1

Kochia (Kochia scoparia) [6] = assay: Test A preemergence; conditions: Bassia scoparia, pre-emergence, 240 h, 0 to 100 scale where 0 is no effect and 100 is complete control, read-out: Kochia plant response rating
Procedure, shortened: as §1

[7] = system: barnyardgrass (Echinochloa crus-galli); assay: Test B flooded paddy test; conditions: Echinochloa crus-galli, 250 g ai/ha, Flood; 0 to 100 scale where 0 is no effect and 100 is complete control; read-out: Barnyardgrass plant response rating
Procedure, shortened: (§2)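 Rating scale 0–100 (visual, vs untreated controls) after a 13–15 d greenhouse period; application to the flood layer, 3 cm above soil and maintained; plants at 2-leaf stage when treated.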

rice (Oryra sativa) = assay: Test B flooded paddy test; conditions: Oryza sativa, 250 g ai/ha, Flood; 0 to 100 scale where 0 is no effect and 100 is complete control; read-out: Rice plant response rating
Procedure, shortened: as §2

[8] = system: ducksalad (Heteranthera limosa); assay: Test B flooded paddy test; conditions: Heteranthera limosa, 250 g ai/ha, Flood; 0 to 100 scale where 0 is no effect and 100 is complete control; read-out: Ducksalad plant response rating
Procedure, shortened: as §2

[9] = system: sedge, umbrella (small-flower umbrella sedge, Cyperus difformis); assay: Test B flooded paddy test; conditions: Cyperus difformis, 250 g ai/ha, Flood; 0 to 100 scale where 0 is no effect and 100 is complete control; read-out: Sedge, Umbrella plant response rating
Procedure, shortened: as §2

[10] = system: barnyardgrass (Echinochloa crus-galli); assay: Test A postemergence; conditions: Echinochloa crus-galli, post-emergence, 240 h
Procedure, shortened: as §1

[11] = system: blackgrass (Alopecurus myosuroides); assay: Test A postemergence; conditions: Alopecurus myosuroides, post-emergence, 240 h
Procedure, shortened: as §1

[12] = system: wheat (Triticum aestivum); assay: Test A postemergence; conditions: Triticum aestivum, post-emergence, 240 h
Procedure, shortened: as §1

corn (Zea mays) = assay: Test A postemergence; conditions: Zea mays, post-emergence, 240 h
Procedure, shortened: as §1

[13] = system: giant foxtail (Setaria faberii); assay: Test A postemergence; conditions: Setaria faberi, post-emergence, 240 h
Procedure, shortened: as §1

[14] = system: pigweed (Amaranthus retroflexus); assay: Test A postemergence; conditions: Amaranthus retroflexus, post-emergence, 240 h
Procedure, shortened: as §1

[15] = system: ragweed (common ragweed, Ambrosia elatior); assay: Test A postemergence; conditions: Ambrosia artemisiifolia, post-emergence, 240 h
Procedure, shortened: as §1

[16] = system: ryegrass, Italian (Italian ryegrass, Lolium multiflorum); assay: Test A postemergence; conditions: Lolium multiflorum, post-emergence, 240 h
Procedure, shortened: as §1

Kochia (Kochia scoparia) [17] = assay: Test A postemergence; conditions: Bassia scoparia, post-emergence, 240 h
Procedure, shortened: as §1

[18] = 125 g ai/ha, preemergence, approx. 10 d

CSc1ccccc1NC(=O)[C@H]1C(=O)N(C)C[C@@H]1c1ccc(F)c(OC(C)C)c1 [Compound 1076]
pest or weed control at 31 g/ha ([1]; 31 g ai/ha, Preemergence): 0%
pest or weed control at 125 g/ha [1, 18]: 90%
pest or weed control at 31 g/ha ([2]; 31 g ai/ha, Preemergence): 80%
pest or weed control at 125 g/ha [2, 18]: 100%
pest or weed control at 31 g/ha ([3]; 31 g ai/ha, Preemergence): 0%
pest or weed control at 125 g/ha [3, 18]: 20%
pest or weed control at 31 g/ha ([4]; 31 g ai/ha, Preemergence): 10%
pest or weed control at 125 g/ha [4, 18]: 0%
pest or weed control at 31 g/ha ([5]; 31 g ai/ha, Preemergence): 0%
pest or weed control at 125 g/ha [5, 18]: 0%
pest or weed control at 31 g/ha (Kochia (Kochia scoparia) [6]; 31 g ai/ha, Preemergence): 0%
pest or weed control at 125 g/ha (Kochia (Kochia scoparia) [6]; [18]): 0%
pest or weed control at 250 g/ha [7]: 20%
pest or weed control at 250 g/ha (rice (Oryra sativa)): 40%
pest or weed control at 250 g/ha [8]: 90%
pest or weed control at 250 g/ha [9]: 0%
pest or weed control at 125 g/ha ([10]; 125 g ai/ha, postemergence, visual injury on 0 to 100 scale (0 no effect, 100 complete control), approx. 10 d, read-out: Barnyardgrass plant response rating): 50%
pest or weed control at 31 g/ha ([10]; Postemergence, 31 g ai/ha, visual injury after approx. 10 d, 0 to 100 scale, 0 no effect, 100 complete control, read-out: Plant response rating, Barnyardgrass): 0%
pest or weed control at 125 g/ha ([11]; 125 g ai/ha, postemergence, visual injury on 0 to 100 scale (0 no effect, 100 complete control), approx. 10 d, read-out: Blackgrass plant response rating): 20%
pest or weed control at 31 g/ha ([11]; Postemergence, 31 g ai/ha, visual injury after approx. 10 d, 0 to 100 scale, 0 no effect, 100 complete control, read-out: Plant response rating, Blackgrass): 0%
plant injury at 125 g/ha ([12]; 125 g ai/ha, postemergence, visual injury on 0 to 100 scale (0 no effect, 100 complete control), approx. 10 d, read-out: Wheat plant response rating): 0%
plant injury at 31 g/ha ([12]; Postemergence, 31 g ai/ha, visual injury after approx. 10 d, 0 to 100 scale, 0 no effect, 100 complete control, read-out: Plant response rating, Wheat): 0%
plant injury at 125 g/ha (corn (Zea mays); 125 g ai/ha, postemergence, visual injury on 0 to 100 scale (0 no effect, 100 complete control), approx. 10 d, read-out: Corn plant response rating): 0%
Corn plant response rating (crop injury, 0 = no effect, 100 = complete kill) at 31 g/ha (corn (Zea mays); Postemergence, 31 g ai/ha, visual injury after approx. 10 d, 0 to 100 scale, 0 no effect, 100 complete control): 0%
pest or weed control at 125 g/ha ([13]; 125 g ai/ha, postemergence, visual injury on 0 to 100 scale (0 no effect, 100 complete control), approx. 10 d, read-out: Foxtail, Giant plant response rating): 50%
pest or weed control at 31 g/ha ([13]; Postemergence, 31 g ai/ha, visual injury after approx. 10 d, 0 to 100 scale, 0 no effect, 100 complete control, read-out: Plant response rating, Foxtail, Giant): 0%
pest or weed control at 125 g/ha ([14]; 125 g ai/ha, postemergence, visual injury on 0 to 100 scale (0 no effect, 100 complete control), approx. 10 d, read-out: Pigweed plant response rating): 0%
pest or weed control at 31 g/ha ([14]; Postemergence, 31 g ai/ha, visual injury after approx. 10 d, 0 to 100 scale, 0 no effect, 100 complete control, read-out: Plant response rating, Pigweed): 0%
pest or weed control at 125 g/ha ([15]; 125 g ai/ha, postemergence, visual injury on 0 to 100 scale (0 no effect, 100 complete control), approx. 10 d, read-out: Ragweed plant response rating): 0%
pest or weed control at 31 g/ha ([15]; Postemergence, 31 g ai/ha, visual injury after approx. 10 d, 0 to 100 scale, 0 no effect, 100 complete control, read-out: Plant response rating, Ragweed): 0%
pest or weed control at 125 g/ha ([16]; 125 g ai/ha, postemergence, visual injury on 0 to 100 scale (0 no effect, 100 complete control), approx. 10 d, read-out: Ryegrass, Italian plant response rating): 0%
pest or weed control at 31 g/ha ([16]; Postemergence, 31 g ai/ha, visual injury after approx. 10 d, 0 to 100 scale, 0 no effect, 100 complete control, read-out: Plant response rating, Ryegrass, Italian): 0%
pest or weed control at 125 g/ha (Kochia (Kochia scoparia) [17]; 125 g ai/ha, postemergence, visual injury on 0 to 100 scale (0 no effect, 100 complete control), approx. 10 d, read-out: Kochia plant response rating): 0%
pest or weed control at 31 g/ha (Kochia (Kochia scoparia) [17]; Postemergence, 31 g ai/ha, visual injury after approx. 10 d, 0 to 100 scale, 0 no effect, 100 complete control, read-out: Plant response rating, Kochia): 0%

Source: US12077503B2, “Substituted cyclic amides and their use as herbicides” (FMC CORPORATION, priority 2015, dated 2024)
